Data taken from US20230092890A1, “1, 3, 4-Oxadiazole derivative compounds as histone deacetylase 6 inhibitor, and the pharmaceutical composition comprising the same” (Chong Kun Dang Pharmaceutical Corp., priority 2019, published 2023).

What was measured:
HDAC6 human recombinant = molecular target: T1, HDAC6 human recombinant (Homo sapiens, UniProt Q9UBN7); assay: HDAC enzyme activity inhibition (in vitro), HDAC6 assay; type: biochemical; settings: samples at 0.1, 1, 10, 100 and 1000 nM; 37° C. 60 minutes; fluorescence Ex 390, Em 460; read-out: HDAC6 IC50
T1 construct: purchased Calbiochem 382180
T1 sequence (Q9UBN7 1-1215): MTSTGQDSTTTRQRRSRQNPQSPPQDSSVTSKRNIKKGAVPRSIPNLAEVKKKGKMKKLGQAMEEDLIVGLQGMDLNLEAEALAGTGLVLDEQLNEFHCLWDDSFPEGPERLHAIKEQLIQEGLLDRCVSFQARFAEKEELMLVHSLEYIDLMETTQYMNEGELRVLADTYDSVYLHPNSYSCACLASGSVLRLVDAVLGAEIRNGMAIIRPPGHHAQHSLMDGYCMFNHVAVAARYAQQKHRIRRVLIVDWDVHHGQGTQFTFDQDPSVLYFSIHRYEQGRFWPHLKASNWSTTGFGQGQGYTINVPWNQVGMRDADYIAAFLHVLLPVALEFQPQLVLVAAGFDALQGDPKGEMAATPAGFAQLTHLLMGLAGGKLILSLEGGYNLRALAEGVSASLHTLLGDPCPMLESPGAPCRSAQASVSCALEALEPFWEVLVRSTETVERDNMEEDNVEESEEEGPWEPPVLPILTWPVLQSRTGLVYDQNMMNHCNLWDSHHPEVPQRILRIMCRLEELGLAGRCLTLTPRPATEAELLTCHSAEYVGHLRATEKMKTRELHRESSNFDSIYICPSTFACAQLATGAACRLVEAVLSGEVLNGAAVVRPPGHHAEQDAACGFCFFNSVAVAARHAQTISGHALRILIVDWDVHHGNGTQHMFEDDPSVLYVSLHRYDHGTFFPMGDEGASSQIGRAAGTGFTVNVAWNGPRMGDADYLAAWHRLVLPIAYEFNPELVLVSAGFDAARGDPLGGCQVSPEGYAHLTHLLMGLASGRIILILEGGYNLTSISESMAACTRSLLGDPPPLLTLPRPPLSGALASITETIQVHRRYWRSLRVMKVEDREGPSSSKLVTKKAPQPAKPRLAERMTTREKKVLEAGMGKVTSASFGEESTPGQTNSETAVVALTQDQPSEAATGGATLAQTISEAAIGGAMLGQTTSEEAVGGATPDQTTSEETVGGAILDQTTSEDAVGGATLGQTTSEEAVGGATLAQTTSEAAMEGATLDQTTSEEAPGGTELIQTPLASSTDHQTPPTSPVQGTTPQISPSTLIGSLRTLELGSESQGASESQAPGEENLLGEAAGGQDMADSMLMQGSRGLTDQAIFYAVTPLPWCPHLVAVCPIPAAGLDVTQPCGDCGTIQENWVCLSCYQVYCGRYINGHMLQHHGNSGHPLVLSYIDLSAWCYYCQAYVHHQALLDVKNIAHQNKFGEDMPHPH
Procedure, shortened: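 HDAC6 human recombinant enzyme with fluorimetric substrate; […]. Reaction 60 min at 37° C, then developer 30 min at 37° C; fluorescence read at Ex 390/Em 460.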

HDAC1 = molecular target: T2, HDAC1 (Homo sapiens, UniProt Q13547); assay: HDAC enzyme activity inhibition (in vitro), HDAC1 Fluorimetric Drug Discovery Assay Kit; type: biochemical; settings: samples at 100, 1000 and 10000 nM; 37° C. 60 minutes; fluorescence Ex 390, Em 460; read-out: HDAC1 IC50
T2 construct: purchased Enzolifesciences BML-AK511
Procedure, shortened: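 Compound incubated with enzyme 60 min at 37° C, then developer 30 min at 37° C; fluorescence read at Ex 390/Em 460. HDAC1 via fluorimetric kit, compounds at 100, 1000 and 10000 nM; HDAC6 human recombinant, compounds at 0.1, 1, 10, 100 and 1000 nM.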

T2 sequence (Q13547 whole entry): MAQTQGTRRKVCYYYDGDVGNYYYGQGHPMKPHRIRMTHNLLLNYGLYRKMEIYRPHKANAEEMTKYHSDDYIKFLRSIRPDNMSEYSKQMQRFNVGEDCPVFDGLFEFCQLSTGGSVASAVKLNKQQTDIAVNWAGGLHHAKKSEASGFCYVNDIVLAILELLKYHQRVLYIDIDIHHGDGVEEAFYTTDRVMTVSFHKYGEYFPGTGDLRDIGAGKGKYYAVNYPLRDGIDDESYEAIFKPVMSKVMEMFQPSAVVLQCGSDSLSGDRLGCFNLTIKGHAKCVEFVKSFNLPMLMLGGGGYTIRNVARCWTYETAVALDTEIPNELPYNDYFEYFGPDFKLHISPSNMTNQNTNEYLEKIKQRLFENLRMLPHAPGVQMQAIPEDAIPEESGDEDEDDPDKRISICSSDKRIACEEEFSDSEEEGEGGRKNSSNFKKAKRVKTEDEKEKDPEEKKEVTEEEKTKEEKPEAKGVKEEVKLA

Row | SMILES | IC50 (HDAC6 human recombinant) [nM] | IC50 (HDAC1) [nM]
1 | O=c1n(Cc2ccc(-c3nnc(C(F)F)o3)cc2F)c2cc(F)ccc2n1C1CCN(C2CCC2)CC1 [Compound 74, 1-(1-cyclobutylpiperidine-4-yl)-3-(4-(5-(difluoromethyl)-1,3,4-oxadiazole-2-yl)-2-fluorobenzyl)-5-fluoro-1,3-dihydro-2H-benzo[d]imidazole-2-one] | 70 | > 10000
2 | O=c1n(Cc2ccc(-c3nnc(C(F)F)o3)cn2)c2c(F)cccc2n1C1CCN(C2COC2)CC1 [Compound 77, 3-((5-(5-(difluoromethyl)-1,3,4-oxadiazole-2-yl)pyridine-2-yl)methyl)-4-fluoro-1-(1-(oxetan-3-yl)piperidine-4-yl)-1,3-dihydro-2H-benzo[d]imidazole-2-one] | 35 | > 10000
3 | O=c1n(Cc2ccc(-c3nnc(C(F)F)o3)cn2)c2ccccc2n1C1CCN(C2COC2)CC1 [Compound 78, 1-((5-(5-(difluoromethyl)-1,3,4-oxadiazole-2-yl)pyridine-2-yl)methyl)-3-(1-(oxetan-3-yl)piperidine-4-yl)-1,3-dihydro-2H-benzo[d]imidazole-2-one] | 79 | > 10000
4 | CN1CCC(n2c(=O)n(Cc3ccc(-c4nnc(C(F)F)o4)cc3)c3cc(F)ccc32)CC1 [Compound 79, 3-(4-(5-(difluoromethyl)-1,3,4-oxadiazole-2-yl)benzyl)-5-fluoro-1-(1-methylpiperidine-4-yl)-1,3-dihydro-2H-benzo[d]imidazole-2-one] | 66 | > 10000
5 | O=c1n(Cc2ccc(-c3nnc(C(F)F)o3)cc2)c2cc(F)ccc2n1C1CCN(C2COC2)CC1 [Compound 80, 3-(4-(5-(difluoromethyl)-1,3,4-oxadiazole-2-yl)benzyl)-5-fluoro-1-(1-(oxetan-3-yl)piperidine-4-yl)-1,3-dihydro-2H-benzo[d]imidazole-2-one] | 61 | > 10000
6 | O=c1n(Cc2ccc(-c3nnc(C(F)F)o3)cn2)c2cc(Cl)c(Cl)cc2n1C1CCN(C2COC2)CC1 [Compound 82, 5,6-dichloro-1-((5-(5-(difluoromethyl)-1,3,4-oxadiazole-2-yl)pyridine-2-yl)methyl)-3-(1-(oxetan-3-yl)piperidine-4-yl)-1,3-dihydro-2H-benzo[d]imidazole-2-one] | 23 | > 10000
7 | CN1CCC(n2c(=O)n(Cc3ccc(-c4nnc(C(F)F)o4)cn3)c3cc(F)c(F)cc32)CC1 [Compound 83, 1-((5-(5-(difluoromethyl)-1,3,4-oxadiazole-2-yl)pyridine-2-yl)methyl)-5,6-difluoro-3-(1-methylpiperidine-4-yl)-1,3-dihydro-2H-benzo[d]imidazole-2-one] | 49 | > 10000
8 | O=c1n(Cc2ccc(-c3nnc(C(F)F)o3)cn2)c2cc(F)c(F)cc2n1C1CCN(C2COC2)CC1 [Compound 84, 1-((5-(5-(difluoromethyl)-1,3,4-oxadiazole-2-yl)pyridine-2-yl)methyl)-5,6-difluoro-3-(1-(oxetan-3-yl)piperidine-4-yl)-1,3-dihydro-2H-benzo[d]imidazole-2-one] | 36 | > 10000
9 | O=c1n(Cc2ccc(-c3nnc(C(F)F)o3)cc2F)c2cc(Cl)c(Cl)cc2n1C1CCN(C2COC2)CC1 [Compound 88, 5,6-dichloro-1-(4-(5-(difluoromethyl)-1,3,4-oxadiazole-2-yl)-2-fluorobenzyl)-3-(1-(oxetan-3-yl)piperidine-4-yl)-1,3-dihydro-2H-benzo[d]imidazole-2-one] | 38 | > 10000
10 | CN1CCC(n2c(=O)n(Cc3ccc(-c4nnc(C(F)F)o4)cc3F)c3cc(C(F)(F)F)ccc32)CC1 [Compound 91] | 58 | > 10000

Continued, values first:

Row | IC50 (HDAC6 human recombinant) [nM] | IC50 (HDAC1) [nM] | SMILES
11 | 26 | > 10000 | O=c1n(Cc2ccc(-c3nnc(C(F)F)o3)cc2F)c2cc(F)ccc2n1C1CCN(C2CCOCC2)CC1 [Compound 72, 3-(4-(5-(difluoromethyl)-1,3,4-oxadiazole-2-yl)-2-fluorobenzyl)-5-fluoro-1-(1-(tetrahydro-2H-pyran-4-yl)piperidine-4-yl)-1,3-dihydro-2H-benzo[d]imidazole-2-one]
12 | 80 | > 10000 | O=c1n(Cc2ccc(-c3nnc(C(F)F)o3)cc2F)c2cc(F)ccc2n1C1CCN(C2CCSCC2)CC1 [Compound 73, 3-(4-(5-(difluoromethyl)-1,3,4-oxadiazole-2-yl)-2-fluorobenzyl)-5-fluoro-1-(1-(tetrahydro-2H-thiopyran-4-yl)piperidine-4-yl)-1,3-dihydro-2H-benzo[d]imidazole-2-one]
13 | 46 | > 10000 | CC(=O)N1CCC(n2c(=O)n(Cc3ccc(-c4nnc(C(F)F)o4)cc3F)c3cc(F)ccc32)CC1 [Compound 75]
14 | 31 | > 10000 | CN1CCC(n2c(=O)n(Cc3ccc(-c4nnc(C(F)F)o4)cn3)c3c(F)cccc32)CC1 [Compound 76, 3-((5-(5-(difluoromethyl)-1,3,4-oxadiazole-2-yl)pyridine-2-yl)methyl)-4-fluoro-1-(1-methylpiperidine-4-yl)-1,3-dihydro-2H-benzo[d]imidazole-2-one]
15 | 15 | > 10000 | CN1CCC(n2c(=O)n(Cc3ccc(-c4nnc(C(F)F)o4)cn3)c3cc(Cl)c(Cl)cc32)CC1 [Compound 81, 5,6-dichloro-1-((5-(5-(difluoromethyl)-1,3,4-oxadiazole-2-yl)pyridine-2-yl)methyl)-3-(1-methylpiperidine-4-yl)-1,3-dihydro-2H-benzo[d]imidazole-2-one]
16 | 31 | > 10000 | CN1CCC(n2c(=O)n(Cc3ccc(-c4nnc(C(F)F)o4)cc3)c3cc(Cl)c(Cl)cc32)CC1 [Compound 85, 5,6-dichloro-1-(4-(5-(difluoromethyl)-1,3,4-oxadiazole-2-yl)benzyl)-3-(1-methylpiperidine-4-yl)-1,3-dihydro-2H-benzo[d]imidazole-2-one]
17 | 28 | > 10000 | O=c1n(Cc2ccc(-c3nnc(C(F)F)o3)cc2)c2cc(Cl)c(Cl)cc2n1C1CCN(C2COC2)CC1 [Compound 86, 5,6-dichloro-1-(4-(5-(difluoromethyl)-1,3,4-oxadiazole-2-yl)benzyl)-3-(1-(oxetan-3-yl)piperidine-4-yl)-1,3-dihydro-2H-benzo[d]imidazole-2-one]
18 | 63 | > 10000 | CN1CCC(n2c(=O)n(Cc3ccc(-c4nnc(C(F)F)o4)cc3F)c3cc(Cl)c(Cl)cc32)CC1 [Compound 87, 5,6-dichloro-1-(4-(5-(difluoromethyl)-1,3,4-oxadiazole-2-yl)-2-fluorobenzyl)-3-(1-methylpiperidine-4-yl)-1,3-dihydro-2H-benzo[d]imidazole-2-one]
19 | 38 | > 10000 | CN1CCC(n2c(=O)n(Cc3ccc(-c4nnc(C(F)F)o4)cn3)c3cc(C(F)(F)F)ccc32)CC1 [Compound 89, 3-((5-(5-(difluoromethyl)-1,3,4-oxadiazole-2-yl)pyridine-2-yl)methyl)-1-(1-methylpiperidine-4-yl)-5-(trifluoromethyl)-1,3-dihydro-2H-benzo[d]imidazole-2-one]
20 | 31 | > 10000 | O=c1n(Cc2ccc(-c3nnc(C(F)F)o3)cn2)c2cc(C(F)(F)F)ccc2n1C1CCN(C2COC2)CC1 [Compound 90, 3-((5-(5-(difluoromethyl)-1,3,4-oxadiazole-2-yl)pyridine-2-yl)methyl)-1-(1-(oxetan-3-yl)piperidine-4-yl)-5-(trifluoromethyl)-1,3-dihydro-2H-benzo[d]imidazole-2-one]
